Test system: human dermal fibroblasts
Assay: MTT assay, cell viability
Assay type: cell-based
Conditions: 1, 5, 10 μM; up to 72 hours
Protocol: MTT assays were performed to assess the metabolic activity of human dermal fibroblasts. Human dermal fibroblasts were seeded in 96-well plates (Costar, USA) at a density of 1×10^4 cells/mL. After 24 hours of incubation, the medium was replaced by the Lig-PEG1, Lig-PEG2, Lig-PEG4, α-CD and P(PEGMA) (Mn=18 000 g/mol) aqueous solutions at concentrations of 10 μM, 5 μM and 1 μM, respectively. The cells were then incubated for 24 hours, 48 hours and 72 hours, respectively. After the designated time intervals, the wells were washed twice with 1×PBS buffer, and 100 μL of freshly prepared MTT (0.5 mg/mL) solution in culture medium was added to each well. The MTT medium solution was carefully removed after 3 hours incubation in the incubator. DMSO (100 μL) was then added into each well, and the plate was gently shaken for 10 minutes at room temperature to dissolve all precipitates formed. The absorbance of MTT at 570 nm was monitored by the microplate reader (Genios Tecan, Switzerland). Cell viability was expressed by the ratio of absorbance of the cells incubated with polymer solution to that of the cells incubated with culture medium only.

Q: How did the cytotoxicity turn out when `OC[C@H]1O[C@@H]2O[C@H]3[C@H](O)[C@@H](O)[C@@H](O[C@H]4[C@H](O)[C@@H](O)[C@@H](O[C@H]5[C@H](O)[C@@H](O)[C@@H](O[C@H]6[C@H](O)[C@@H](O)[C@@H](O[C@H]7[C@H](O)[C@@H](O)[C@@H](O[C@H]1[C@H](O)[C@H]2O)O[C@@H]7CO)O[C@@H]6CO)O[C@@H]5CO)O[C@@H]4CO)O[C@@H]3CO` [α-CD, α-cyclodextrin] was run?
A: no cytotoxicity

From US10683382B2, “Copolymer comprising a lignin or lignin derivative and a poly(alkylene oxide) alkyl ether (meth)acrylate, and a hydrogel comprising the copolymer” (AGENCY FOR SCIENCE, TECHNOLOGY AND RESEARCH, priority 2015, dated 2020)
